Converted amounts (≈) assume the structure as drawn. Read-outs that look alike come from different tables or passages of the source. Square brackets hold non-standard residues; d marks the D form. Peptide text beside a SMILES is read from it. Ahp(2) = CCCCC[C@H](N)C(=O)O
Legend:
[1] = tested on: S. aureus USA300; test: MIC assay, S. aureus USA300; format: cell-based, Staphylococcus aureus; conditions: Table 7
Method: (§1) Bacterial growth conditions. LB or Mueller Hinton II cation-adjusted broth (MHB II, BBL 212322) was prepared according to manufacturer's instructions and supplemented with arabinose at 0.02% for overnight growth or at indicated concentrations in the description of the figures. Bacterial cultures were grown at 37° C. When appropriate, media was supplemented with kanamycin (50 μg/mL), carbenicillin (50 μg/mL), chloramphenicol (12.5 or 25 μg/mL), hygromycin (200 μg/mL), and/or gentamicin (10 μg/mL).
(§2) Peptide sensitivity and MIC assays. Lyophilized peptides (Smartox Biotechnology, CPC Scientific. ABclonal) were solubilized to 10 mM in Tris buffer, pH 8, prior to making a 2-fold dilution series in MHBII cation adjusted broth with highest final assay concentration of 400-800 μM. Bacteria were grown to log phase and added to final OD600˜0.001. The final EDTA concentration was 0.5 mM for E. coli strains and 0.125 mM for USA300. The final volume of 10 μL/well in a 384 well black, clear bottom plate (Corning) was spun <1 min at <250×g and then incubated at 37° C. After 4 h, an equal volume (10 μL) of BacTiter-Glo™ (Promega) was added to each well and luminescence was read after 5 min on an EnVision plate reader (PerkinElmer). To measure the minimal inhibitory concentrations (MICs), bacteria from fresh overnight plates or log phase cultures were diluted with or without EDTA and peptides as described above to final OD600˜0.0002. Plates were incubated at 37° C. for 20 h before measuring OD600 with an EnVision plate reader.

[2] = tested on: E. coli imp4213; test: MIC assay, E. coli imp4213; format: cell-based, Escherichia coli; conditions: Table 7
Method: as §1, §2

[3] = tested on: K. pneumoniae; format: cell-based, Klebsiella pneumoniae
Method: as §1, §2

[4] = tested on: P. aeruginosa; format: cell-based, Pseudomonas aeruginosa
Method: as §1, §2

[5] = tested on: E. coli BW25113; format: cell-based, Escherichia coli
Method: as §1, §2

[6] = tested on: A. baumannii; format: cell-based, Acinetobacter baumannii
Method: as §1, §2

Compound | MIC S. aureus USA300 [1] [µM] | MIC E. coli imp4213 [2] [µM] | other results
Ac-YPATARRFLEKHGL-NH2 [compound 21] | >800 | 800 | –
Ac-YAMTARRFLEKHGL-NH2 [compound 20] | >800 | 400 | –
CCCCC[C@H](NC(=O)[C@@H](NC(=O)[C@H](CCSC)NC(=O)[C@@H]1CCCN1C(=O)[C@H](CCCNC(=N)N)NC(C)=O)[C@@H](C)O)C(=O)N[C@@H](CCCNC(=N)N)C(=O)N[C@@H](CCCNC(=N)N)C(=O)N[C@@H](Cc1c[nH]c2ccccc12)C(=O)N[C@@H](CC(C)C)C(=O)N[C@@H](CCC(=O)O)C(=O)N[C@@H](CCCCN)C(=O)N[C@@H](CCCNC(=N)N)C(=O)NCC(=O)N[C@@H](CC(C)C)C(N)=O [compound 212] (Ac-RPMT[Ahp(2)]RRWLEKRGL-NH2) | – | – | MIC K. pneumoniae ([3]; Table 8): >400.0 µM; MIC R. aeruginosa ([4]; Table 8): >400.0 µM; MIC E. coli BW25113 ([5]; Table 8): 100.0 µM (≈ 187 µg/mL); MIC A. baumannii ([6]; Table 8): 200.0 µM (≈ 373 µg/mL)
Ac-YPMTARRFLEKHGW-NH2 [compound 47] | >800 | 200 | –
Ac-YPMTARRFLQKWGLLR-NH2 [compound 72] | – | – | MIC K. pneumoniae ([3]; Table 8): 400 µM; MIC R. aeruginosa ([4]; Table 8): 800 µM; MIC E. coli BW25113 ([5]; Table 8): 400 µM; MIC A. baumannii ([6]; Table 8): 50 µM
Ac-YPFTARRFLEKHGL-NH2 [compound 23] | >800 | 400 | –
Ac-RPMTSRRWLAKRGL-NH2 [compound 214] | – | – | MIC K. pneumoniae [3]: >400.0 µM; MIC R. aeruginosa [4]: >400.0 µM; MIC E. coli BW25113 ([5]; BW25113): 100.0 µM; MIC A. baumannii [6]: >400.0 µM
Ac-YPMTARRFLEAHGL-NH2 [compound 39] | >800 | 200 | –
Ac-YPMTARAFLEKHGL-NH2 [compound 31] | >800 | 800 | –
Ac-YPMTARRWLEKHGL-NH2 [compound 34] | >800 | 25 | –
Ac-KPMTARRFLEKWGLLR-NH2 [compound 61] | – | 12.5 | MIC R. aeruginosa ([4]; Table 8): 400 µM; MIC A. baumannii ([6]; Table 8): 40 µM
Ac-RPMTARRFLEKHGL-NH2 [compound 19] | >800 | 25 | –
Ac-WPMTARRFLEKHGL-NH2 [compound 18] | >800 | 200 | –
Ac-YPMTARRFLEKAGL-NH2 [compound 42] | >800 | 800 | –
Ac-YPMTARRFLEKWGLLR-NH2 [compound 14] | 800 | 25 | –
Ac-YPLTARRFLEKHGL-NH2 [compound 22] | >800 | 400 | –
Ac-YPMTARKFLEKHGL-NH2 [compound 32] | >800 | 100 | –
Ac-YPMSARRFLAKWGLLR-NH2 [compound 15] | 800 | <12.5 | –
Ac-YPMTARRFLEKYGL-NH2 [compound 43] | >800 | 100 | –
Ac-YPMTAKRFLEKHGL-NH2 [compound 30] | >800 | 800 | –
Ac-YPMTARRFLSKHGL-NH2 [compound 37] | >800 | 400 | –
